From PubChem BioAssay AID179 (DTP/NCI, 2004)
Activity calls are given as the source filed them.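 How the source made its calls: active means compounds giving half or more protection of infected cells from virus-caused growth loss, again on retest; inactive means the rest.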

Test system: CEM cells HIV-1 protection, formazan growth assay
Assay: NCI AIDS Antiviral Assay
Settings: for IC50: measured here: growth of uninfected CEM cells
Method in brief: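 Soluble formazan readout of cell growth; CEM cells ± HIV-1; 5 drug concs. ≥50% protection → retest; ≥50% again = moderately active; reproducible 100% = confirmed active.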

CC(C)CCCC(C)C1CCC2C3CC[C@H]4C[C@H](NC(=O)C=C(c5cc(Cl)c(O)c(C(=O)O)c5)c5cc(Cl)c(O)c(C(=O)O)c5)CC[C@]4(C)C3CC[C@]12C (stereo partly drawn)
EC50: > 100 µM | IC50: 26.3 µM

COc1ccccc1C1SCc2nc3ccccc3n21 (stereo not drawn)
EC50: > 91.2 µM | IC50: 36.3 µM

CN(Cc1cnc2nc(N)nc(N)c2n1)c1ccc(C(=O)NC(CCC(=O)NCC(P(=O)(O)O)P(=O)(O)O)C(=O)O)cc1 (stereo not drawn)
EC50: > 200 µM | IC50: 1.23 µM

O=C(NCCN1CCOCC1)c1ccc(I)cc1
EC50: > 200 µM | IC50: > 200 µM

COc1cc2c(cc1OC)C1C3CCCCC3CCN1CC2 (stereo not drawn)
EC50: > 200 µM | IC50: 138 µM

Cc1cc(NS(=O)(=O)c2ccc(Nc3c4ccccc4nc4ccc(C(=O)Nc5ccc(S(N)(=O)=O)cc5)cc34)cc2)no1
EC50: > 200 µM | IC50: 110 µM

O=C(c1ccccc1)C1S(=O)(=O)OCCOS1(=O)=O
EC50: > 5130 µM | IC50: 3090 µM

OC(Cc1ccc2ccccc2c1)CN1CCC(c2ccccc2)CC1 (stereo not drawn)
EC50: > 93.3 µM | IC50: 37.2 µM

Cc1[nH]c(=O)nc2nc3cc(Cl)cc(Cl)c3c(NC(C)(CO)CO)c12
EC50: > 200 µM | IC50: > 200 µM

O=C1Nc2ncnn2C1=O
EC50: > 52.5 µM | IC50: > 52.5 µM

[C-]#[N+][C@@H]1C2C([C@@]3(C)CCC(C(C)(C)[N+]#[C-])O3)CC[C@](C)([N+]#[C-])[C@H]2CC[C@@]1(C)O (stereo partly drawn)
outcome: inactive

N#Cc1c(C#N)c(SSc2c(C#N)c(C#N)c(N)n2-c2ccccc2)n(-c2ccccc2)c1N
EC50: > 20 µM | IC50: 1.95 µM

NC(N)=NS(=O)(=O)c1ccc(NNC(=O)c2cccc3c(=O)c4ccccc4[nH]c23)cc1
EC50: > 200 µM | IC50: 33.9 µM

Cn1c(=O)c2nc(NCCO)cnc2n(C)c1=O
EC50: > 200 µM | IC50: 85.1 µM

N=C(N)n1[nH]c2c(c1=O)CCC2
EC50: > 200 µM | IC50: > 200 µM

Cc1cn(C2C/C(=C\C#N)C(CO[Si](C)(C)C(C)(C)C)O2)c(=O)[nH]c1=O (stereo not drawn)
EC50: > 200 µM | IC50: 182 µM

Cc1ccc(/C=C2\CCCC(CN3CCCCC3)C2=O)cc1 (stereo not drawn)
EC50: > 200 µM | IC50: 0.724 µM

Nc1nc([O-])c2c(n1)[n+](C1OC(CO)C(O)C1O)cn2CCO (stereo not drawn)
EC50: > 759 µM | IC50: > 759 µM

CC(C)(C)c1noc2c1C(=O)c1ccccc1-2
EC50: > 200 µM | IC50: 83.2 µM

N#CC12C(=O)NC(=O)C1(C#N)C2c1ccccc1 (stereo not drawn)
EC50: > 501 µM | IC50: > 501 µM

COC(=O)C12C3C4C1C1C2C3C41C(=O)O (stereo not drawn)
EC50: > 1200 µM | IC50: > 1200 µM

COC(=O)[C@H](CCSC)NC(=O)N[C@H](C)c1ccccc1
EC50: > 200 µM | IC50: > 200 µM

C[C@H](C(=O)C12CC3CC(CC(C3)C1)C2)[C@H](O)c1ccccc1
outcome: inactive

S=P1(c2ccccc2)Nc2ccc(Cl)cc2N1 (stereo not drawn)
EC50: > 468 µM | IC50: 9.12 µM

c1ccc(CSC(SCc2ccccc2)c2cccc3ccccc23)cc1
EC50: 5.89 µM | IC50: > 200 µM

O=[N+]([O-])c1ccc(C=NC23CC4CC(CC(C4)C2)C3)cc1
outcome: inactive

CCC1(Br)OC1=O (stereo not drawn)
EC50: > 200 µM | IC50: 107 µM

CC(=O)CC(=O)/C=C/c1cccs1
EC50: > 257 µM | IC50: 178 µM

NC(N)=N/N=C/c1oc(-c2ccc(S(=O)(=O)O)o2)c(-c2ccc(S(=O)(=O)O)o2)c1[N+](=O)[O-]
EC50: > 513 µM | IC50: > 513 µM

CCOC(=O)c1c(N)n(-c2ccccc2)c(=S)n(-c2ccccc2)c1=O
EC50: > 178 µM | IC50: > 178 µM

Clc1ccc(CN2COc3c(ccc4cccnc34)C2)cc1
EC50: > 200 µM | IC50: 1.82 µM

COc1ccc2c(O)c(C)c(=O)n(C)c2c1
EC50: > 200 µM | IC50: > 200 µM

CCOC(=O)C1=C(C)N(NC(N)=O)C(C)(O)C12CCOC2=O (stereo not drawn)
EC50: > 794 µM | IC50: > 794 µM

CN1C(=O)c2c(c3c4ccccc4n(C4OC(CO)C(O)C(O)C4O)c3c3[nH]c4ccccc4c23)C1=O (stereo not drawn)
EC50: > 200 µM | IC50: 3.89 µM

COc1cccc(/S(C)=N/S(=O)(=O)c2ccc(C)cc2)c1 (stereo not drawn)
EC50: > 776 µM | IC50: 214 µM

CN(CCN(C)C(=O)CCn1ccc(=O)[nH]c1=O)C(=O)CCn1ccc(=O)[nH]c1=O
EC50: > 32.4 µM | IC50: > 32.4 µM

NC1=NN(c2ccc(Br)cc2)C2C=CC=CN12 (stereo not drawn)
EC50: > 200 µM | IC50: 151 µM

NC(=O)N/N=C/C(/C=N/NC(N)=O)[N+](=O)[O-]
EC50: > 112 µM | IC50: > 112 µM

CCOc1ccccc1N=Nc1ccc2oc(=O)c(C(C)=O)cc2c1
EC50: > 8.13 µM | IC50: > 8.13 µM

COP(=O)(OC)/C(=C\C1=CN(C(c2ccccc2)(c2ccccc2)c2ccccc2)CN1)NC=O
EC50: > 200 µM | IC50: 21.4 µM

N#CC(C#N)=Cc1ccc(C#N)cc1
EC50: > 141 µM | IC50: 20.4 µM

N=c1c2ccccc2nnn1Cc1ccccc1
EC50: > 178 µM | IC50: > 178 µM

CC(C)(C)c1cc(C(=O)Nc2cc(Br)c(Br)cc2S(N)(=O)=O)cc(C(C)(C)C)c1O
EC50: > 200 µM | IC50: 8.13 µM

NC(Cc1cnc[nH]1)C(=O)NC(Cc1ccc(O)c(O)c1)C(=O)NCC(=O)N/C=C\c1c[nH]c2cc(Br)ccc12 (stereo not drawn)
EC50: > 81.3 µM | IC50: > 81.3 µM

CC(=O)Nc1ccccc1NC1CC(C)N(c2ccccc2)N1C(C)=O (stereo not drawn)
EC50: > 200 µM | IC50: 32.4 µM

Clc1ccc(C(Cc2cccc(Cl)c2)c2c(Cl)nc(N3CCNCC3)nc2Cl)cc1 (stereo not drawn)
EC50: > 200 µM | IC50: 17.4 µM

COC(=O)C(Cc1nc2ccccc2nc1C)/C(=N\NC(N)=O)C(=O)Nc1cccc([N+](=O)[O-])c1 (stereo not drawn)
EC50: > 15.1 µM | IC50: > 15.1 µM

CC12C=CC(C)(C3C(=O)C4C(C(=O)C31)C1(C)C=CC4(C)S1=O)S2=O (stereo not drawn)
EC50: 21.9 µM | IC50: 60.3 µM

COc1ccc2nc3c4ccccc4scc-3c2c1
EC50: > 200 µM | IC50: 0.295 µM

C=CCSS(=O)CC=C (stereo not drawn)
outcome: inactive

C=C1C(O)CC[C@]2(C)C1C1OC(C)(C)O[C@]13CC(=O)C(C)=C([C@H]1OC(C)(C)OC12)C3(C)C (stereo partly drawn)
EC50: > 200 µM | IC50: > 200 µM

C#C[C@@]1(O)CCCC2=CC(=O)C[C@]21C
outcome: inactive

Cc1ccc(N2C(=O)/C(=C\c3ccc(N(CCC#N)CCC#N)cc3)N=C2COc2ccccc2)cc1
EC50: > 38 µM | IC50: > 38 µM

CN=C1CN2OC(=O)N(C)C2(c2ccccc2)c2cc(Cl)ccc2N1 (stereo not drawn)
EC50: > 112 µM | IC50: 41.7 µM

CC(C(N)C(=O)NC(C(=O)O)C1OC(c2c[nH]c(=O)[nH]c2=O)C(O)C1O)C(O)c1ccc(O)cn1 (stereo not drawn)
outcome: inactive

CC(=O)Nc1ncc2ccccc2c1-c1ccc(NC(=O)CN(CCO)CCO)cc1
EC50: > 200 µM | IC50: > 200 µM

CC(=O)n1c2ccccc2c2nc3nc(Oc4ccc(C)cc4)c4ccccc4c3cc21
EC50: > 6.61 µM | IC50: > 6.61 µM

COc1ccc(N(C(=O)NCCO)c2ccccc2)cc1
EC50: > 200 µM | IC50: > 200 µM

Cn1ccnc1CCc1c(Cl)cccc1Cl
EC50: > 851 µM | IC50: 123 µM

C=C1C(OC(=O)C(OC(C)=O)C(c2ccccc2)N(C)C)C[C@H](O)[C@]2(C)C1C[C@@H]1CC(OC(C)=O)C(C)=C([C@@H](OC(C)=O)C2O)C1(C)C (stereo partly drawn)
outcome: inactive

C#C[C@]1(O)CC[C@H]2[C@@H]3CCC4=C/C(=N/OCCN(C)C)CC[C@]4(C)[C@H]3CC[C@@]21C
EC50: > 100 µM | IC50: 4.79 µM

CCOC(=O)c1cnc2c(ccc3ncccc32)c1Cl
EC50: > 66.1 µM | IC50: 34.7 µM

O=C(Nc1ccc(S(=O)(=O)c2ccc(NS(=O)(=O)Cc3ccccc3[N+](=O)[O-])cc2)cc1)c1ccccc1SSc1ccccc1C(=O)Nc1ccc(S(=O)(=O)c2ccc(NS(=O)(=O)Cc3ccccc3[N+](=O)[O-])cc2)cc1
EC50: 28.2 µM | IC50: > 200 µM

CCC(C#N)NCc1ccc(CNC(C#N)CC)cc1 (stereo not drawn)
EC50: > 200 µM | IC50: > 200 µM

Cc1cccc2c1C(=O)C1(Cc3ccccc3C1=O)C2 (stereo not drawn)
EC50: > 200 µM | IC50: > 200 µM

CCCCCCCCC[C@@H]1C[C@H](O)[C@H](Cc2ccccc2)N1C(=O)OC(C)(C)C
EC50: > 200 µM | IC50: 35.5 µM

Clc1cccc(Cl)c1C1SCc2nc3ccccc3n21 (stereo not drawn)
EC50: 0.224 µM | IC50: 21.9 µM

C=Cc1c2[n-]c(c1C)/C=c1\[n-]/c(c(C)c1C=C)=C\c1[n-]c(c(CCC(=O)O)c1C)/C=c1\[n-]/c(c(C)c1CCC(=O)O)=C\2.[Fe+4]
EC50: > 14.5 µM | IC50: > 14.5 µM

COP12(OC)NC(=O)OC1(C(F)(F)F)c1ccccc1O2 (stereo not drawn)
EC50: > 776 µM | IC50: 537 µM

CC(C)=CCN(N=O)c1ncnc2nc[nH]c12
EC50: > 200 µM | IC50: > 200 µM

O=S(Cc1ccc2c(c1)OCO2)c1ccccc1 (stereo not drawn)
EC50: > 955 µM | IC50: 661 µM

CC(O)CC[P+](c1ccccc1)(c1ccccc1)c1ccccc1 (stereo not drawn)
EC50: > 200 µM | IC50: 4.27 µM

CC(C)=CCc1ccc2[nH]c3c(c2c1)C(=O)C(=O)C(C)=C3C(O)C(C)O (stereo not drawn)
EC50: > 200 µM | IC50: 1.95 µM

COc1ccc2c(c1)CCC1=C2CC(=O)N2CCCCN12
EC50: > 91.2 µM | IC50: > 91.2 µM

N#CC1=C(N)C(C#N)(C#N)C2(CCCC2)C2CCC=C12 (stereo not drawn)
outcome: inactive

O=c1c2ccccc2n2c(-c3ccccc3O)nnc2n1-c1ccccc1
EC50: > 200 µM | IC50: > 200 µM

N#Cc1cn(-c2c3ccccc3nc3ccccc23)c(=O)[nH]c1=O
EC50: > 214 µM | IC50: 0.288 µM

Cc1nc(-n2nc(-c3ccccc3)cc2-c2ccccc2)sc1C(=O)/C=C/c1ccc(/C=C/C(=O)c2sc(-n3nc(-c4ccccc4)cc3-c3ccccc3)nc2C)cc1
EC50: > 22.9 µM | IC50: > 22.9 µM

CCOC(=O)C(C(=O)OCC)=C(N)C(Cl)(Cl)Cl
EC50: > 200 µM | IC50: 42.7 µM

N.N.O=N[O-].O=N[O-].O=N[O-].O=N[O-].[Co+3].[Cs+]
outcome: inactive

c1ccc(-c2cn3c(nc4ccccc43)c(-c3ccccc3)n2)cc1
EC50: > 200 µM | IC50: 132 µM

O=C(O)C(F)(F)C(F)(F)C(F)(F)C(F)(F)C(F)(F)C(F)(F)C(F)(F)C(F)(F)F
EC50: > 200 µM | IC50: 105 µM

CCOc1c(OC)cc(CNNc2nccs2)cc1OC
EC50: > 200 µM | IC50: 89.1 µM

CCOC(=O)Nn1cnnc1C
EC50: > 200 µM | IC50: > 200 µM

COc1cc2c(cc1OC)C1c3ccccc3CCN1CC2 (stereo not drawn)
EC50: > 200 µM | IC50: 93.3 µM

CC(C)(C)SSCCN
EC50: > 200 µM | IC50: > 200 µM
